Reference: paper PMC11124341, “4-Hydroxybenzoic Acid-Based Hydrazide–Hydrazones as Potent Growth Inhibition Agents of Laccase-Producing Phytopathogenic Fungi That Are Useful in the Protection of Oilseed Crops” (Molecules, 2024)
In brackets after ≈: the same amount, converted by molar mass.

What was measured:
[1] = system: Botrytis cinerea strain FBc05; experiment: In vitro antifungal activity, mycelial growth inhibition on PDA medium; assay type: cell-based; conditions: for fungal growth inhibition, B. cinerea / inhibition of growth at 50 µg/mL: screening at basal 50 µg/mL, PDA medium, mean ± SD of three determinations; for inhibition at 6.25 µg/mL / inhibition at 25 µg/mL / inhibition at 50 µg/mL / IC50 / inhibition of growth at 50 µg/mL: Botrytis cinerea, FBC05; for inhibition at 6.25 µg/mL / inhibition at 25 µg/mL / inhibition at 50 µg/mL: fungicidal profile, read-out: B. cinerea inhibition; for IC50: log-logistic model, 0–50 µg/mL range, read-out: IC50 against Botrytis cinerea (Bc); for inhibition of growth at 50 µg/mL: read-out: fungal growth inhibition, B. cinerea
[2] = system: Cerrena unicolor strain no. 139; experiment: as above; assay type: cell-based; conditions: for inhibition of growth at 50 µg/mL / inhibition at 50 µg/mL / IC50: Cerrena unicolor, NO.139; for inhibition of growth at 50 µg/mL: read-out: fungal growth inhibition, C. unicolor; for inhibition at 50 µg/mL: fungicidal profile, read-out: C. unicolor inhibition; for IC50: log-logistic model, 0–50 µg/mL range, read-out: IC50 against Cerrena unicolor (Cu)
Outline: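 Compounds in PDA plates (ethanol or DMSO co-solvent, 0.1–1.0% v/v), screened at 50 µg/mL, selected ones at 0–50 µg/mL; 5 mm mycelial plug placed centrally, 22 °C dark until co-solvent control covered (3 d B. cinerea, S. sclerotiorum; 7 d C. unicolor). IC50 from nonlinear dose–response fit, only where growth fell >50%.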

[3] = system: Sclerotinia sclerotiorum strain FSc10; experiment: as above; assay type: cell-based; conditions: for fungal growth inhibition, S. sclerotiorum / inhibition of growth at 50 µg/mL: screening at basal 50 µg/mL, PDA medium, mean ± SD of three determinations; for inhibition of growth at 50 µg/mL: read-out: fungal growth inhibition, S. sclerotiorum; for IC50: log-logistic model, 0–50 µg/mL range, read-out: IC50 against Sclerotinia sclerotiorum (Ss)
[4] = system: sunflower (Helianthus annuus L.) seeds; experiment: Phytotest 1: phytotoxicity, seed germination and root growth; assay type: in vivo; conditions: 50 µg/mL; versus water–ethanol 0.5% (v/v) control; <90% inhibition, 90–110% no effect, >110% stimulation
From the text: In the experiments with plants, two aspects were taken under consideration: (1) phytotoxicity, which determined the toxicity of the hydrazide–hydrazones on seed germination and root growth, and (2) study on the behavior of seeds in the presence of the tested hydrazide–hydrazones and pathogens producing laccase (B. cinerea and S. sclerotiorum). The non-coated seeds of Linum usitatissimum, Helianthus annuus, and Brassica napus var. napus were provided by the Institute of Soil Science and Plant Cultivation, National Research Institute in Pulawy, Department of Weed Science and Tillage Systems, and Institute of Technology and Life Sciences–National Research Institute Falenty (Poland). Both phytotests were performed based on direct-contact microbiotests following the protocol recommended by the manufacturer (PhytotestkitTM, MicroBio Tests, Mariakerke, Belgium) with the authors’ modifications.
The main phytotest equipment (Tigret, Warsaw, Poland) and general methods are described as follows. Test plates (21 × 15.5 × 0.8 cm) provide optimal moisture and enable observation of seed germination and data reading at the end of the test. A single plate is made of polyvinylchloride and composed of both a transparent bottom and a covering part that are stuck together by a set of press buttons. […] Such prepared wet support was covered with a black filter paper that soaked the solution and was applied for further testing.
In the assay of phytotoxicity (1), the seeds of three dicota plants were used, namely ten seeds of flax or rapeseed and six seeds of sunflower. The seeds were transferred directly on the filter surface by placing them along the line at approximately 1 cm from the ridge at equal distances. Then, the seeds on the filter surface were covered with a covering part and placed in a holder.
All test plates were put vertically in a special incubator to allow free germination and growth of roots at 25 °C through 5 days in the dark. The test was performed in triplicate for each test plant. The results were expressed as the germination index values (GI, Equation (2)) concerning the plant growth controls in water–ethanol solution for (1). […] The GI was calculated from the formula and categorized as an inhibition for GI values < 90%, as stimulation > 110%, and between 90 and 110% as non-toxic/no effect as proposed in the literature. (2) GI,%=Gs×Ls/Gc×Lc×100% where Gs is seed germination (%), Ls is root elongation (mm) for the test plate, and Gc and Lc are corresponding values for the control plates. Gc was calculated as the proportion of germinated seeds in the test in relation to the number of germinated seeds in the control. The control was the representative number of seeds that germinated on a medium with 0.5% (v/v) of ethanol.

[5] = screening at basal 50 µg/mL, PDA medium, mean ± SD of three determinations
[6] = Sclerotinia sclerotiorum, FSC10
[7] = Sclerotinia sclerotiorum, FSC10, fungicidal profile, read-out: S. sclerotiorum inhibition

SMILES	fungal growth inhibition, B. cinerea [1]	fungal growth inhibition, C. unicolor [2, 5]	fungal growth inhibition, S. sclerotiorum [3]	Germination index (GI), sunflower, test 1 [4]	inhibition of growth at 50 µg/mL [2, 5]	inhibition of growth at 50 µg/mL [3, 6]	inhibition at 6.25 µg/mL [1]	inhibition at 25 µg/mL [1]	inhibition at 50 µg/mL [1]	IC50 [1]	inhibition of growth at 50 µg/mL [1]	inhibition at 50 µg/mL [2]	IC50 [2]	inhibition at 6.25 µg/mL [3, 7]	inhibition at 12.5 µg/mL [3, 7]	IC50 [3, 6]	inhibition at 50 µg/mL ([3]; Sclerotinia sclerotiorum, FSC10, fungicidal profile, 50 µg/mL, read-out: S. sclerotiorum inhibition)
O=C(N/N=C/c1cc(O)ccc1O)c1ccc(O)cc1 [compound 13]	n.o.	n.o.	n.o.	87%	–	–	–	–	–	–	–	–	–	–	–	–	–
COc1cc(/C=N/NC(=O)c2ccc(O)cc2)ccc1O [compound 17]	n.o.	–	–	–	11.9 ± 0.8%	7.3 ± 2.1%	–	–	–	–	–	–	–	–	–	–	–
CC(C)(C)c1cccc(/C=N/NC(=O)c2ccc(O)cc2)c1O [compound 18]	–	–	–	no effect	85.9 ± 2.1%	97.1 ± 1.1%	20.2%	56.4%	64.7%	20 µg/mL (≈ 64 µM)	82.1 ± 3.1%	76.5%	18.3 µg/mL (≈ 58.6 µM)	70.6 to 87.6%	96.3%	1.8 µg/mL (≈ 5.76 µM)	–
O=C(N/N=C/c1cccc(-c2ccccc2)c1O)c1ccc(O)cc1 [compound 19]	–	–	–	no effect	71.4 ± 2.1%	50.6 ± 5.5%	30.1%	70.1%	74.1%	13.9 µg/mL (≈ 41.8 µM)	73.5 ± 3.3%	70.5%	20.3 µg/mL (≈ 61.1 µM)	–	–	69.9 µg/mL (≈ 210 µM)	–
Cc1cc(/C=N/NC(=O)c2ccc(O)cc2)c(O)c(CO)c1 [compound 25]	–	–	n.o.	non-toxic	70.1 ± 1.8%	–	–	–	–	–	2.8 ± 1.9%	–	–	–	–	–	–
CC(C)(C)c1cc(/C=N/NC(=O)c2ccc(O)cc2)c(O)c(C(C)(C)C)c1 [compound 27]	–	–	–	82%	42.8 ± 2.2%	85.5 ± 3.2%	–	–	–	–	23.4 ± 2.7%	–	2190 µg/mL (≈ 5950 µM)	82.9%	–	0.5 µg/mL (≈ 1.36 µM)	93.1%
Cc1cc(/C=N/NC(=O)c2ccc(O)cc2)c(O)c(C(C)(C)C)c1 [compound 30]	–	–	–	67%	89.8 ± 0.4%	96.8 ± 2.2%	–	–	–	62.5 µg/mL (≈ 191 µM)	76.2 ± 2.2%	90.5%	13.5 µg/mL (≈ 41.4 µM)	70.6 to 87.6%	98.7%	0.8 µg/mL (≈ 2.45 µM)	–
